What was measured:
[1] = molecular target: T1, human lipocalin-prostaglandin D2 synthase (human lipocalin-PGDS) (Homo sapiens, UniProt P41222); test: Inhibition of human lipocalin-PGDS enzyme activity; assay type: biochemical; conditions: at a concentration of 10 μmol/L; read-out: inhibitory rate, human lipocalin-PGDS
T1 sequence (P41222 23-190): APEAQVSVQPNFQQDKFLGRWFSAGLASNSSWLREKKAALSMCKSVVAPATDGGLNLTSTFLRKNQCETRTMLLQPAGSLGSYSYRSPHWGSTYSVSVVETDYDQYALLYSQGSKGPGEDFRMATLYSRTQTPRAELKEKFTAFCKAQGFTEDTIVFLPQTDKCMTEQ

cyclooxygenase-1 (COX-1) = cyclooxygenase-1 (COX-1) (Homo sapiens, UniProt P23219); test: Inhibition of COX-1 enzyme activity; assay type: biochemical; conditions: at a concentration of 10 μmol/L; read-out: inhibitory rate, COX-1
Sequence of cyclooxygenase-1 (COX-1) (P23219 24-599, species assumed): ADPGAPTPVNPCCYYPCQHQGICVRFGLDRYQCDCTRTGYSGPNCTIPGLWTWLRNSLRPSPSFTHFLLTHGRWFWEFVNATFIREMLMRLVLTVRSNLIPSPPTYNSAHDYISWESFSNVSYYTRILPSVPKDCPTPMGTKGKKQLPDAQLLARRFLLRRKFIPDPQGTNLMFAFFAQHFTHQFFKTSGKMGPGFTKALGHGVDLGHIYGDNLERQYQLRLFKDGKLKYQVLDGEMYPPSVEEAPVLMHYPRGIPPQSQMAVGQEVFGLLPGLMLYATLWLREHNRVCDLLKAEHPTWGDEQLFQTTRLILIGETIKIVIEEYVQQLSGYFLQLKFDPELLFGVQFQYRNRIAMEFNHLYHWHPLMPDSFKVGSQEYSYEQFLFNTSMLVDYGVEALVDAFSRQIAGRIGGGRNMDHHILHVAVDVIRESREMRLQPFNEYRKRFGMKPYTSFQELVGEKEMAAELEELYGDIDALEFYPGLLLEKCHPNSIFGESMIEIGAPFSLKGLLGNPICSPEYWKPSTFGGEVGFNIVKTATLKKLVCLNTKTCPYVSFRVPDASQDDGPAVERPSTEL

[2] = system: PGD2 production in mouse ear; test: Inhibitory effect on PGD2 production in mouse ear caused by allergic reaction; assay type: in vivo; conditions: 10 mg/kg orally, 1 hour before inducing antigen-antibody reaction; BALB/c mice
Procedure: A test of PGD2 production in the mouse ear caused by allergic reaction was conducted according to the evaluation method of passive cutaneous anaphylaxis in the mouse ear by Inagaki et al. (Int.Arch.AllergyAppl. Immunol., 1988, 86 (3), 325-30) with some alteration. […]
One hour after the induction of antigen-antibody reaction, the mice were killed by cervical dislocation and the ears were cut off with scissors. […] The harvested pieces of ear tissue were immediately frozen in liquid nitrogen, and preserved at −80° C. until measurement of the quantity of PGD2.
The quantity of PGD2 was determined in the following manner. […]

With `O=C(O)c1cc(-c2ccco2)nc2ccc3nn(-c4ccccc4)nc3c12` [Compound 133, 7-(furan-2-yl)-2-phenyl-2H-[1,2,3]triazolo[4,5-f]quinoline-9-carboxylic acid] the inhibition at 10 µM [1] was at most 20%, the inhibition at 10 µM (cyclooxygenase-1 (COX-1)) was at most 20% and the “inhibition of PGD2 production in mouse ear caused by allergic reaction” value [2] was 88%.

From patent publication US20120196854A1, “PHARMACEUTICAL COMPOSITION COMPRISING AROMATIC HETEROCYCLIC COMPOUND” (Kyowa Hakko Kirin Co., Ltd., priority 2009, published 2012)
